# “Also recorded” adds a separate entry of the source. Where two headings read alike, the source gives them in different places.
# Assays:
# Format in all cases: binding
# 14-3-3γ/SLP76 [1] = target: T1, 14-3-3γ/SLP76 (Homo sapiens, UniProt P61981+Q13094); assay: HTRF dose-response assay on 14-3-3γ/SLP76; settings: 14-3-3γ-Tb 1 nM, SLP76-AF647 600 nM, 5% DMSO, EC50 estimated from fit
# Procedure: 384-Well logistic plates were prefilled with 2 μL of compounds at 2 mM, 100% DMSO, except for columns 1, 2, 23 and 24. Columns 1, 2 were filled with 2 μL of DMSO while columns 23, 24 were filled with 2 μL of the 14-3-3 inhibitor R18 at 20 μM using a Multidrop Dispenser (ThermoScientific). Next, 40 μL of protein mixture containing Tb-labelled 14-3-3γ at 1 nM and AF647 labelled SLP76 at 600 nM in assay buffer (50 mM Tris pH 7.5, 150 mM NaCl, 5 mM MgCl2, 0.05% v/v Tween-20) were added using a Multidrop Dispenser (ThermoScientific). […] To perform the assay, 30 μL volumes were then transferred using a Biomek FX^P Automated Workstation (Beckman Coulter) into Corning 384-well 3574 assay plates. The plates were incubated at room temperature with gentle shaking for 4 h. Finally, the data were collected on a PHERAstar FSX plate reader (BMG Labtech) with an λex 337 nm, λem 665 nm and 620 nm HTRF filter setting. The data were exported in IDBS ActivityBase (IDBS) where they were normalised setting the R18 negative control as 100% inhibition and the DMSO control as 0%. Negative percentage values were therefore associated with a stabilisation of the 14-3-3γ/SLP76 interaction. The threshold of −20% inhibition (or 20% stabilisation) was chosen to select the hits to follow up. The selected hits were retested on 14-3-3γ/SLP76 and were also tested against an unrelated protein pair (IL-17/receptor) in a similar assay setup. […] All the assays were performed as described above.
# (§1) 384 logistic plates were prefilled with 40 μL of compounds at 10 mM, 100% DMSO in column 3. Columns 1, 2 and 4 to 22 were filled with 20 μL of 100% DMSO with a Multidrop Dispenser (ThermoScientific). 2-Fold dilutions of the compounds were carried over from column 3 to 22, with a CyBio FeliX liquid handler (analytikjena). 2 μL of R18 peptide at 20 μM was added to columns 23 and 24 of the Corning 384-well 3574 final assay plates with a Multidrop Dispenser (ThermoScientific). 40 μL of protein mixture, containing Tb labelled 14-3-3γ at 1 nM and AF647 labelled SLP76 at 600 nM in assay buffer (50 mM Tris pH 7.5, 150 mM NaCl, 5 mM MgCl2, 0.05% v/v Tween-20) were added with a Multidrop Dispenser (ThermoScientific) into the Corning 384-well 3574 final assay plates. 2 μL of compounds along with the DMSO control were then transferred with a CyBio FeliX liquid handler (analytikjena) from the 384 logistic plates to the final Corning 384-well 3574 assay plates. […] The dose–response on the first 64 compounds was performed in singlet from a 500 μM top concentration. The repetition on the best 16 compounds was performed in duplicates from a 250 μM top concentration. A dose–response assay on an unrelated 14-3-3ζ/p27 HTRF protein pair was performed as described above. Incubation, data acquisition and normalisation were performed as described above. For EC50 estimation, the data were fitted with a “log(agonist) vs. response (three parameters)” model on GraphPad Prism version 8.1.1 for Windows, GraphPad Software, La Jolla California USA, www.graphpad.com. In the case of duplicates, each data point is the average of a duplicate measurement, standard deviation is reported as error bars.
# 14-3-3ζ/p27 = 14-3-3ζ/p27 (Homo sapiens, UniProt P46527+P63104); assay: HTRF dose-response assay on 14-3-3ζ/p27; settings: for Selectivity between 14-3-3γ/SLP76 and 14-3-3ζ/p27 (in words): comparison of HTRF dose-responses
# Sequence of 14-3-3ζ/p27 (P63104 whole entry): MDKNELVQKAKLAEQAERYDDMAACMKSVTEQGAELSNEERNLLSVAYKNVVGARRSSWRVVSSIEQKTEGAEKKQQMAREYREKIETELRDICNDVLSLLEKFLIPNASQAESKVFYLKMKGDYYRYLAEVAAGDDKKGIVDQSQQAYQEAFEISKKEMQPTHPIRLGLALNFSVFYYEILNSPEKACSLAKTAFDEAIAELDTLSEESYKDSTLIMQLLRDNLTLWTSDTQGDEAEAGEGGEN
# Sequence of 14-3-3ζ/p27 (P46527 whole entry): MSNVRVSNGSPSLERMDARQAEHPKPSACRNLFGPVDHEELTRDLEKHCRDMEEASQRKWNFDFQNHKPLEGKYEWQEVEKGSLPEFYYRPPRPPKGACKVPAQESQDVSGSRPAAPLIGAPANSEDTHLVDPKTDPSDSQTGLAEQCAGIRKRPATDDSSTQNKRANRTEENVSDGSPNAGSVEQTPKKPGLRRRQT
# Procedure: as §1
# 14-3-3γ/SLP76 [2] = target: T1, 14-3-3γ/SLP76; assay: Orthogonal SPR assay, compound flowed with SLP76 over immobilised 14-3-3γ; parameters: key to SPR RU (%) mass increase 14-3-3γ/SLP76: Ns: no stabilisation observed in SPR; settings: for Stabilisation in SPR (in words): off-rate / mass on chip versus runs without compound; for SPR RU (%) mass increase 14-3-3γ/SLP76: percentage of SLP76 remained on the chip after the dissociation phase (+240 s)
# Procedure: Of the 16 hit compounds 13 were tested in an orthogonal SPR assay in which each compound was flowed with SLP76 over 14-3-3γ immobilised on the chip. Runs at different concentrations of compound were compared to the runs in absence of compound. […] The effect of the compounds on 14-3-3γ/SLP76 was measured by calculating the percentage of SLP76 remained on the chip after the dissociation phase and immediately before: RU (%) = RU 5 s before dissociation/RU +240 s after dissociation. Dose–response curves were extrapolated from those sensorgrams plotting the RU (%) mass increase over the increase in compound concentrations.
# SPR experiments were performed on a Biacore T200 (Cytiva). The Sensor Chip NTA was validated as previously reported by Soini et al.[63] A DMSO tolerance at 2% and 5% was performed in the same way (Fig. S1 ^†).
# For compounds testing, the compounds were preincubated with SLP76, in final DMSO concentration of 5%. The compounds were tested at a single concentration of 100 μM and at multiple concentrations following a 3-fold dilution from a top concentration of 100 μM with SLP76 at the saturation concentration of 250 nM. A second set of experiments were performed at multiple concentrations of compound following a 3-fold dilution from a top concentration of 200 μM with SLP76 around the KD concentration of 40 nM. The SLP76/compound mixtures were flowed over the immobilised 14-3-3γ at 30 μL min^−1 for 180 s before allowing dissociation for 5 minutes. After every cycle, the chip was washed with EDTA and Ni^2+ and 14-3-3γ reinjected for the next cycle. The compound effects were measured by calculating the percentage of SLP76 remained on the chip after the dissociation phase and right before: RU (%) = RU 5 s before dissociation/RU +240 s after dissociation. RU response points relative to +240 s after dissociation were also plotted and an apparent EC50 was estimated. The data were fitted with a “One site – specific” model on GraphPad Prism version 8.1.1 for Windows, GraphPad Software, La Jolla California USA, www.graphpad.com.
# [3] = stabilisation, read-out: HTRF EC50 14-3-3γ/SLP76
# [4] = stabilisation, same FRET pair, EC50 estimated from fit, read-out: HTRF EC50 14-3-3ζ/p27
# T1 sequence (Q13094 356-533): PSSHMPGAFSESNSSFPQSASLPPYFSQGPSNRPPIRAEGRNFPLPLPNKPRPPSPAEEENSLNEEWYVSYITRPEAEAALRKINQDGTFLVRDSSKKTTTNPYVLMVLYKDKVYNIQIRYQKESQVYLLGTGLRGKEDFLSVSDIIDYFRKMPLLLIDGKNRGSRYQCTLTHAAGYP
# T1 sequence (P61981 whole entry): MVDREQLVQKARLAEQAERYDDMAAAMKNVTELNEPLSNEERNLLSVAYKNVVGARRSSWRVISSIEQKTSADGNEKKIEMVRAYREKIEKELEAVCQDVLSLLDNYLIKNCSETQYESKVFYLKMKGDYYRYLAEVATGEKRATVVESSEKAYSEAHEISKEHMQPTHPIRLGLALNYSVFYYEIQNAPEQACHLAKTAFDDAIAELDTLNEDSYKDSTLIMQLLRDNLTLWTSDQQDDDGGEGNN
SMILES,EC50 (14-3-3γ/SLP76 [1]; [3]),Stabilisation of 14-3-3ζ/p27 in HTRF (in words) (14-3-3ζ/p27),Selectivity between 14-3-3γ/SLP76 and 14-3-3ζ/p27 (in words) (14-3-3ζ/p27),EC50 (14-3-3ζ/p27; [4]),Stabilisation in SPR (in words) (14-3-3γ/SLP76 [2]),SPR RU (%) mass increase 14-3-3γ/SLP76 (14-3-3γ/SLP76 [2]),"EC50 (14-3-3γ/SLP76 [1]; HTRF EC50 14-3-3γ/SLP76, stabilisation)",EC50 (14-3-3ζ/p27)
"O=C1OC[C@@H]2CCN(Cc3ccccc3)Cc3ccccc3N12 [Compound 1, (6S)-9-benzyl-4-oxa-2,9-diazatricyclo[9.4.0.02,6]pentadeca-1(11),12,14-trien-3-one]",19.1 ± 7.7 µM,no observed stabilisation,selective for the 14-3-3γ/SLP76 interaction,> 250 µM,orthogonally confirmed and equipotent by SPR,66.4%,,
"CC(C)N1CC[C@H]2COC(=O)N2c2cc(F)ccc2C1 [Compound 2, (6S)-14-fluoro-9-propan-2-yl-4-oxa-2,9-diazatricyclo[9.4.0.02,6]pentadeca-1(15),11,13-trien-3-one]",18.6 ± 5.5 µM,no observed stabilisation,selective for the 14-3-3γ/SLP76 interaction,> 250 µM,orthogonally confirmed and equipotent by SPR,67.6%,,
"COc1ccc(C(=O)N2C[C@@H]3CN(CCO3)C(=O)[C@@H]3C[C@@H](CN3Cc3ccc4c(c3)OCO4)NC(=O)C[C@@H]3O[C@H](C2)[C@@H](O)[C@H]3O)cc1 [Compound 4, (3S,6S,10S,11R,12S,13R,17R)-4-(1,3-benzodioxol-5-ylmethyl)-11,12-dihydroxy-15-(4-methoxybenzoyl)-18,22-dioxa-1,4,7,15-tetrazatetracyclo[15.3.1.13,6.110,13]tricosane-2,8-dione]",17.4 ± 4.9 µM,,selective for the 14-3-3γ/SLP76 system,> 250 µM,orthogonally confirmed by SPR; also recorded: orthogonally confirmed in the SPR assay,57.1%,,
"CC1=CCC2COC(C[N+]3(C)CCCCC3)C1C2 (centres unmarked) [Compound 5, 1-methyl-1-[(8-methyl-3-oxabicyclo[3.3.1]non-7-en-2-yl)methyl]piperidin-1-ium]",71.1 ± 23.9 µM,,selective over 14-3-3ζ/p27,> 250 µM,no observable stabilisation effect,Ns ^d,,
"COc1ccc2c(c1)[C@]1(CC[N+](C)(C)CC(=O)OC(C)(C)C)CCCC[C@@H]1C=C2 [Compound 6, 2-[(4aS,10aR)-6-methoxy-2,3,4,10a-tetrahydro-1H-phenanthren-4a-yl]ethyl-dimethyl-[2-[(2-methylpropan-2-yl)oxy]-2-oxoethyl]azanium]",,,selective over 14-3-3ζ/p27,,no observable stabilisation effect,Ns ^d,33.5 ± 10.7 µM,> 250 µM
"Fc1ccc(OCc2nn3c(Cn4cnc5ccccc54)nnc3s2)cc1 [Compound 8, 3-(benzimidazol-1-ylmethyl)-6-[(4-fluorophenoxy)methyl]-[1,2,4]triazolo[3,4-b][1,3,4]thiadiazole]",69.1 ± 22.6 µM,,weak and equipotent stabiliser of both the 14-3-3γ/SLP76 and 14-3-3ζ/p27 systems,53.9 ± 17.1 µM,orthogonally confirmed by SPR,61.2%,,
